According to US20260166313A1, “WIRELESS PATCH SYSTEM FOR TRANSDERMAL, TRANSMUCOSAL AND DENTAL ELECTRICAL DRUG DELIVERY” (priority 2015, published 2026):

Experiment: ACEK effect (DEP, ACEO, ACET) on drug particles over the inductively powered IDE, observed by light microscopy
Type: physicochemical
Details: for negative DEP (nDEP) detection / ACET effect detection: any frequency range; for negative DEP (nDEP) detection: DI water
Description: In order to study the functionality of the patch in terms of a demodulation circuit and ACEK effect, a very simple set-up was constructed which is shown in FIG. 2C. The experimental set-up includes the dental patch, an optical microscope, AC waveform generators, a digital oscilloscope and some probe connectors. A microchamber was sealed over the IDE to hold the solution (FIG. 2C). […] The movement of particles was observed by an optical microscope NIKON ECLIPSE LV100 (Nikon Instruments, Inc., Melville, New York, United States of America) and the images from the microscope were acquired by a Roper Scientific (Tucson, Arizona, United States of America) digital camera and subsequently transferred to a computer. An AM signal with the amplitude of 10 V was applied to the primary coil. The AM signal applied to the primary coil was generated by two Agilent Arbitrary Waveform Generators (model 33220A). The carrier signal frequency was 8 MHz. The separation between primary and secondary coil is 10 mm. An Agilent Mixed Signal Oscilloscope (model MSO6012A) was used to record the demodulated signal. […] The frequency of the modulating signal was continuously swept in order to find an appropriate frequency at which ACEK effect occurs. […] The ACEK effect on Tetracycline, Acetaminophen, Benzocaine and Lidocaine was studied.

Row | negative DEP (nDEP) detection | frequency of maximum ACEO vortices (field 15 Vpp/mm) | Structure (SMILES) | ACET effect detection | frequency of maximum ACEO vortices (field 10 Vpp/mm)
1 | No negative DEP (nDEP) was detected |  | CC(=O)Nc1ccc(O)cc1 [acetaminophen] |  | 
2 | No nDEP or ACET effects were detected | 1 KHz | CCOC(=O)c1ccc(N)cc1 [benzocaine] | No nDEP or ACET effects were detected | 

Row | Structure (SMILES) | negative DEP (nDEP) detection | frequency of maximum ACEO vortices (field 15 Vpp/mm) | ACET effect detection | frequency of maximum ACEO vortices (field 10 Vpp/mm)
3 | CCN(CC)CC(=O)Nc1c(C)cccc1C [lidocaine] | No nDEP or ACET effects were detected |  | No nDEP or ACET effects were detected | 500 Hz
